Experimental data reported in ChEMBL document CHEMBL1136524, “Substituted 2-pyridinemethanol derivatives as potent and selective phosphodiesterase-4 inhibitors” (Bioorg Med Chem Lett, 2003).

Tests used:
Homo sapiens = species on record: Homo sapiens; assay: Ability to inhibit LPS-induced TNF-alpha formation in human whole blood (HWB); type: functional, organism-based
[1] = target: T1, 3',5'-cyclic-AMP phosphodiesterase 4A (Homo sapiens, UniProt P27815); assay: In vitro inhibitory activity against Phosphodiesterase 4A (PDE4)
[2] = target: T1, 3',5'-cyclic-AMP phosphodiesterase 4A; assay: Inhibition of Phosphodiesterase-4A (PDE4)
[3] = Half life period was determined in squirrel monkey after iv administration at a dose of 5 mg/kg; type: ADME, organism-based; design: dose 5 mg/kg, route intravenous; conditions: in vivo
[4] = Oral bioavailability in squirrel monkey at a dose of 10 mg/kg; type: ADME, organism-based, Saimiri sciureus; conditions: in vivo
[5] = Maximal plasma concentration in squirrel monkeys; type: ADME, organism-based
[6] = Oral bioavailability in rat; type: ADME, organism-based; conditions: in vivo
[7] = Half life period was determined in rat after iv administration at a dose of 5 mg/kg; type: ADME, organism-based; design: dose 5 mg/kg, route intravenous; conditions: in vivo
Cavia porcellus = assay: Inhibition of ovalbumin induced bronchoconstriction in conscious guinea pig after ip administration at 0.3 mg/kg (0.5 hr pre-treatment); type: functional; conditions: route intraperitoneal
Ovis aries [8] = assay: Inhibition of ascaris-induced bronchoconstriction in conscious sheep at 0.5 mg/kg iv dose late phase; type: functional
Ovis aries [9] = assay: Inhibition of ascaris-induced bronchoconstriction in conscious sheep at 0.5 mg/kg iv dose at early phase; type: functional

T1 sequence (P27815 whole entry): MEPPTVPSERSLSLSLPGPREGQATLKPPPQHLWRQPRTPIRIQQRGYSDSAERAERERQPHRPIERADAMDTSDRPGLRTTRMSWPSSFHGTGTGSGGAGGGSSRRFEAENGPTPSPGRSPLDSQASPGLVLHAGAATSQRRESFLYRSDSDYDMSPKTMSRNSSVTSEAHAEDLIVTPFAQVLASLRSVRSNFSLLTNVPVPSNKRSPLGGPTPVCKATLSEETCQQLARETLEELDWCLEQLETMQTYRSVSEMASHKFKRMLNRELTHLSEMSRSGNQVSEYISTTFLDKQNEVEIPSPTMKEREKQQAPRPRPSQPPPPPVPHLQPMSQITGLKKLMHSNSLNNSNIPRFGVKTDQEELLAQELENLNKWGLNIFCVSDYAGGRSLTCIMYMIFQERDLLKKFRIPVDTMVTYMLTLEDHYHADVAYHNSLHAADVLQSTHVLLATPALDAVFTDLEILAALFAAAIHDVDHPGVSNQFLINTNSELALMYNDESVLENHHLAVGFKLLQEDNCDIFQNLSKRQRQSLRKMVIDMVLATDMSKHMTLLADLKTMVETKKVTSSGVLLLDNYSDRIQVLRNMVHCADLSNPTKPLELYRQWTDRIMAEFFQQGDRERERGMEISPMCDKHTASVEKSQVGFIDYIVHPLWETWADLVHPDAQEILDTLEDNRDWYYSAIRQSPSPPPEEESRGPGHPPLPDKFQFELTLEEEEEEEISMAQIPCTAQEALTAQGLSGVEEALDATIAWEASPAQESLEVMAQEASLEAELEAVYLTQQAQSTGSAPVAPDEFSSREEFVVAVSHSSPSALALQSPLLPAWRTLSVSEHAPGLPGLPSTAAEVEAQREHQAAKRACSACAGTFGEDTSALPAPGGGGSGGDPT

SMILES	IC50 (Homo sapiens; Homo sapiens, Blood)	IC50 [1]	also measured
CC(C)C(O)(c1ccccc1)c1ccc(C(Cc2cc[n+]([O-])cc2)c2ccc(OC(F)F)c(OC(F)F)c2)cn1 (configuration not stated)	370 nM	0.8 nM	–
[O-][n+]1ccc(CC(c2ccc(C(O)(c3ccccc3)c3ccccc3)nc2)c2ccc(OC(F)F)c(OC(F)F)c2)cc1 (configuration not stated)	550 nM	0.8 nM	–
CC(O)(c1ccc(C(Cc2cc[n+]([O-])cc2)c2ccc(OC(F)F)c(OC(F)F)c2)cn1)C1CCCCC1 (configuration not stated)	300 nM	1.2 nM	–
CC(C)(O)c1ccc(C(Cc2cc[n+]([O-])cc2)c2ccc(OC(F)F)c(OC(F)F)c2)cn1 (configuration not stated)	890 nM	40 nM	–
[O-][n+]1ccc(CC(c2ccc(C(O)c3ccccc3)nc2)c2ccc(OC(F)F)c(OC(F)F)c2)cc1 (configuration not stated)	360 nM	–	IC50 [2]: 6 nM
CC(O)(c1ccc(C(Cc2cc[n+]([O-])cc2)c2ccc(OC(F)F)c(OC(F)F)c2)cn1)c1nccs1 (configuration not stated)	490 nM	6 nM	–
[O-][n+]1ccc(CC(c2ccc(C(O)(c3ccccc3)C(F)(F)F)nc2)c2ccc(OC(F)F)c(OC(F)F)c2)cc1 (configuration not stated)	460 nM	2.4 nM	–
O=C(c1ccccc1)c1ccc(C(Cc2cc[n+]([O-])cc2)c2ccc(OC(F)F)c(OC(F)F)c2)cn1 (configuration not stated)	600 nM	–	IC50 [2]: 23 nM
CCCCC(C)(O)c1ccc(C(Cc2cc[n+]([O-])cc2)c2ccc(OC(F)F)c(OC(F)F)c2)cn1 (configuration not stated)	340 nM	6 nM	–
CCC(O)(c1ccccc1)c1ccc(C(Cc2cc[n+]([O-])cc2)c2ccc(OC(F)F)c(OC(F)F)c2)cn1 (configuration not stated)	160 nM	–	IC50 [2]: 1 nM
[O-][n+]1ccc(CC(c2ccc(Cc3ccccc3)nc2)c2ccc(OC(F)F)c(OC(F)F)c2)cc1 (configuration not stated)	770 nM	3 nM	–
CC(=O)c1ccc(C(Cc2cc[n+]([O-])cc2)c2ccc(OC(F)F)c(OC(F)F)c2)cn1 (configuration not stated)	2200 nM	102 nM	–
CC(O)(c1ccccc1)c1ccc(C(Cc2cc[n+]([O-])cc2)c2ccc(OC(F)F)c(OC(F)F)c2)cn1 (mixture of isomers)	–	48 nM	IC50 (Homo sapiens): 3500 nM
CC(O)(c1ccccc1)c1ccc(C(Cc2cc[n+]([O-])cc2)c2ccc(OC(F)F)c(OC(F)F)c2)cn1 (racemic)	–	0.6 nM	IC50 (Homo sapiens): 350 nM
CC(O)(c1ccccc1)c1ccc(C(Cc2cc[n+]([O-])cc2)c2ccc(OC(F)F)c(OC(F)F)c2)cn1 (single isomer, unassigned; diastereomer 1)	–	2 nM	half-life [3]: 2.2 h; bioavailability [4]: 73%; Cmax [5]: 2200 nM; bioavailability [6]: 57%; half-life [7]: 1.5 h; Inhibition (Cavia porcellus): 62%; IC50 (Homo sapiens): 160 nM; inhibition in vivo at 0.5 mg/kg (Ovis aries [8]): 91%; inhibition in vivo at 0.5 mg/kg (Ovis aries [9]): 33%
CC(O)(c1ccccc1)c1ccc(C(Cc2cc[n+]([O-])cc2)c2ccc(OC(F)F)c(OC(F)F)c2)cn1 (single isomer, unassigned; diastereomer 2)	–	1 nM	Inhibition (Cavia porcellus): 34%; IC50 (Homo sapiens): 110 nM
COc1ccc([C@H](Cc2ccncc2)c2ccccc2)cc1OC1CCCC1 [CDP840]	16000 nM	–	–
